Measured values published in PMC6270026, “Antibacterial and Herbicidal Activity of Ring-Substituted 2-Hydroxynaphthalene-1-carboxanilides” (Molecules, 2013).
Converted amounts (≈) assume the structure as drawn. “And” between values parts separate entries of the source, which are not always exact repeats. Equal entries are not always repeated.

Columns and labels:
[1] = test system: methicillin-resistant Staphylococcus aureus (MRSA) 63718; assay: In vitro antibacterial susceptibility testing (broth dilution MIC); type: cell-based; settings: clinical isolate MRSA 63718, 24 h, 37 °C
Description: (§1) The synthesized compounds were evaluated for in vitro antibacterial activity against representatives of multidrug-resistant bacteria, clinical isolates of methicillin-resistant Staphylococcus aureus (MRSA) 63718, SA 630 and SA 3202 that were obtained from the National Institute of Public Health, Prague, Czech Republic. Staphylococcus aureus ATCC 29213 was used as a reference and quality control strain. Ampicillin (Sigma-Aldrich) was used as the standard. Prior to testing, each strain was passaged onto nutrient agar (Oxoid, Hampshire, UK) with 5% of bovine blood, and bacterial inocula were prepared by suspending a small portion of bacterial colony in sterile phosphate buffered saline (pH 7.2–7.3). The cell density was adjusted to 0.5 McFarland units using a densitometer (Densi-La-Meter, LIAP, Riga, Latvia). The final inoculum was made by 1:20 dilution of the suspension with the Mueller-Hinton broth (MH broth). […] The final concentrations of the evaluated compounds ranging from 256 μg/mL to 0.008 μg/mL. The broth dilution micro-method modified according to NCCLS guidelines in MH broth was used to determine the minimum inhibitory concentration (MIC). Drug-free controls, sterility controls and controls consisted of MH broth and DMSO alone were included. The determination of results was performed visually after 24 h of static incubation in the darkness at 37 °C in an aerobic atmosphere. The MICs were defined as the lowest concentration of the compound at which no visible bacterial growth was observed.

[2] = test system: methicillin-resistant Staphylococcus aureus SA 3202; assay: as above; type: cell-based; settings: MRSA, clinical isolate SA 3202, 24 h, 37 °C, read-out: MIC MRSA 3202
Description: as §1

[3] = test system: Staphylococcus aureus ATCC 29213; assay: as above; type: cell-based; settings: ATCC29213; Staphylococcus aureus ATCC 29213, 24 h, 37 °C
Description: as §1

[4] = test system: methicillin-resistant Staphylococcus aureus SA 630; assay: as above; type: cell-based; settings: MRSA, clinical isolate SA 630, 24 h, 37 °C
Description: as §1

[5] = Lipophilicity determination by RP-HPLC (capacity factor log k); type: physicochemical; settings: isocratic, MeOH 60%/H2O 40%, C18
Description: A HPLC system Agilent 1200 equipped with DAD detector (Agilent, Santa Clara, CA, USA) was used. A chromatographic column Symmetry® C18 5 μm, 4.6 × 250 mm, Part No. WAT054275, (Waters Corp., Milford, MA, USA) was used. The HPLC separation process was monitored and evaluated by EZChrom Elite software ver. 3.3.2 (Agilent). Isocratic elution by a mixture of MeOH p.a. (60%) and H2O-HPLC Mili-Q grade (40%) as a mobile phase was used. The total flow of the column was 1.0 mL/min, injection 20 μL, column temperature 40 °C and sample temperature 10 °C. The detection wavelength 210 nm was chosen. The KI methanolic solution was used for the dead time (tD) determination. Retention times (tR) were measured in minutes. The capacity factors k were calculated according to formula k = (tR − tD)/tD, where tR is the retention time of the solute, whereas tD denotes the dead time obtained using an unretained analyte. Log k, calculated from the capacity factor k, is used as the lipophilicity index converted to log P scale.

M. smegmatis ATCC 700084 = assay: In vitro antimycobacterial evaluation (broth dilution MIC); type: cell-based, Mycobacterium smegmatis; settings: Mycolicibacterium smegmatis, ATCC700084, 72 h; M. smegmatis ATCC 700084, 3 days, 37 °C
[6] = test system: photosynthetic electron transport (PET) in spinach chloroplasts; assay: Inhibition of photosynthetic electron transport (PET) in spinach chloroplasts; type: biochemical, Spinacia oleracea L.; settings: DCPIP photoreduction
Description: Chloroplasts were prepared from spinach (Spinacia oleracea L.) according to Masarovicova and Kralova. The inhibition of photosynthetic electron transport (PET) in spinach chloroplasts was determined spectrophotometrically (Genesys 6, Thermo Electron Scientific Instruments, Madison, WI, USA), using an artificial electron acceptor 2,6-dichlorophenol-indophenol (DCPIP) according to Kralova et al., and the rate of photosynthetic electron transport was monitored as a photoreduction of DCPIP. The measurements were carried out in phosphate buffer (0.02 mol/L, pH 7.2) containing sucrose (0.4 mol/L), MgCl2 (0.005 mol/L) and NaCl (0.015 mol/L). The chlorophyll content was 30 mg/L in these experiments and the samples were irradiated (~100 W/m^2 with 10 cm distance) with a halogen lamp (250 W) using a 4 cm water filter to prevent warming of the samples (suspension temperature 22 °C). The studied compounds were dissolved in DMSO due to their limited water solubility. […] The inhibitory efficiency of the studied compounds was expressed by IC50 values, i.e., by molar concentration of the compounds causing 50% decrease in the oxygen evolution rate relative to the untreated control.

M. kansasii DSM 44162 = assay: In vitro antimycobacterial evaluation (broth dilution MIC); type: cell-based; settings: Mycobacterium kansasii, DSM44162, 168 h; M. kansasii DSM 44162, 7 days, 37 °C
[7] = test system: Mycobacterium avium subsp. paratuberculosis (CIT03); assay: In vitro antimycobacterial evaluation (alamarBlue MIC); type: cell-based; settings: 264 h, M. avium paratuberculosis CIT03, 11 days, 37 °C
Description: A well characterised clinical isolate of Mycobacterium avium subsp. paratuberculosis (CIT03) was grown in Middlebrook broth (MB), supplemented with Oleic-Albumin-Dextrose-Catalase supplement (OADC, Becton, Dickinson & Comp., Franklin Lakes, NJ, USA) and mycobactin J (2 µg/mL). Identification of this isolate was performed using biochemical and molecular protocols. At log phase growth, a culture sample (10 mL) was centrifuged at 15,000 rpm/20 min using a bench top centrifuge (Model CR 4-12, Jouan Inc., Winchester, VA, USA). Following removal of the supernatant, the pellet was washed in fresh Middlebrook 7H9GC broth and re-suspended in fresh supplemented MB (10 mL). The turbidity was adjusted to match McFarland standard No. 1 (3 × 10^8 cfu) with MB broth. A further 1:20 dilution of the culture was then performed in MB broth. The antimicrobial susceptibility of the mycobacterial species was investigated in a 96-well plate format. In these experiments, sterile deionised water (300 µL) was added to all outer-perimeter wells of the plates to minimize evaporation of the medium in the test wells during incubation. Each evaluated compound (100 µL) was incubated with each of the mycobacterial species (100 µL). Dilutions of each compound were prepared in duplicate. For all synthesized compounds, final concentrations ranged from 1,000 µg/mL to 8 µg/mL. All compounds were prepared in DMSO and subsequent dilutions were made in supplemented MB. The plates were sealed with parafilm and incubated at 37 °C, for 11 days in the case of M. avium paratuberculosis. Following incubation, a 10% addition of alamarBlue (AbD Serotec, Kidlington, UK) was mixed into each well and readings at 570 nm and 600 nm were taken, initially for background subtraction and subsequently after 24 h re-incubation. The background subtraction is necessary for strongly coloured compounds, where the colour may interfere with the interpretation of any colour change. For non-interfering compounds, a blue colour in the well was interpreted as an absence of growth and a pink colour was scored as growth. The minimum inhibitory concentrations (MICs) were initially defined as the lowest concentration which prevented a visual colour change from blue to pink.
The MICs were defined as the lowest concentration of the compound at which no visible bacterial growth was observed. The MIC value is routinely and widely used in bacterial assays and is a standard detection limit according to the Clinical and Laboratory Standards Institute (CLSI). Isoniazid (Sigma-Aldrich) was used as reference antimycobacterial drug.

[8] = test system: Mycobacterium marinum CAMP 5644; assay: In vitro antimycobacterial evaluation (broth dilution MIC); type: cell-based; settings: for MIC: Mycobacterium marinum, CAMP5644, 504 h, M. marinum CAMP 5644, 21 days, 28 °C

| Structure (SMILES) | MIC [1] [µM] | MIC [2] [µM] | MIC [3] [µM] | MIC [4] [µM] | log k [5] | MIC (M. smegmatis ATCC 700084) [µM] | IC50 [6] | MIC (M. kansasii DSM 44162) [µM] | MIC [7] [µM] | MIC [8] [µM] | fold higher activity against M. marinum than isoniazid ([8]; ratio of MIC to isoniazid) |
| --- | --- | --- | --- | --- | --- | --- | --- | --- | --- | --- | --- |
| CC1(C)S[C@@H]2[C@H](NC(=O)[C@H](N)c3ccccc3)C(=O)N2[C@H]1C(=O)O [APC, ampicillin, reference compound] | > 45.8 | > 45.8 | 5.7 (≈ 1.99 µg/mL) | > 45.8 | 0.4337 | – | – | – | – | – | – |
| COc1ccccc1NC(=O)c1c(O)ccc2ccccc12 [Compound 2a, 2-Hydroxy-N-(2-methoxyphenyl)naphthalene-1-carboxamide] | > 873 | > 873 | > 873 | > 873 | 0.5121 | > 873 | 477 µM | > 873 | 852 (≈ 250 µg/mL) | > 873 | – |
| COc1cccc(NC(=O)c2c(O)ccc3ccccc23)c1 [Compound 2b, 2-Hydroxy-N-(3-methoxyphenyl)naphthalene-1-carboxamide] | – | 218 (≈ 63.9 µg/mL) | – | – | 0.6582 | 218 (≈ 63.9 µg/mL) | 681 µM | 109 (≈ 32 µg/mL) | 426 (≈ 125 µg/mL) | 218 (≈ 63.9 µg/mL) | – |
| COc1ccc(NC(=O)c2c(O)ccc3ccccc23)cc1 [Compound 2c, 2-Hydroxy-N-(4-methoxyphenyl)naphthalene-1-carboxamide] | – | – | – | – | 0.6342 | – | – | 218 (≈ 63.9 µg/mL) | 852 (≈ 250 µg/mL) | 109 (≈ 32 µg/mL) | – |
| Cc1ccccc1NC(=O)c1c(O)ccc2ccccc12 [Compound 3a, 2-Hydroxy-N-(2-methylphenyl)naphthalene-1-carboxamide] | – | – | – | – | 0.7962 | – | 586 µM | 115 (≈ 31.9 µg/mL) | 451 (≈ 125 µg/mL) | 231 (≈ 64.1 µg/mL) | – |
| Cc1cccc(NC(=O)c2c(O)ccc3ccccc23)c1 [Compound 3b, 2-Hydroxy-N-(3-methylphenyl)naphthalene-1-carboxamide] | – | 231 (≈ 64.1 µg/mL) | 231 (≈ 64.1 µg/mL) | 231 (≈ 64.1 µg/mL) | 0.4593 | 231 (≈ 64.1 µg/mL) | 372 µM | 115 (≈ 31.9 µg/mL) | 451 (≈ 125 µg/mL) | 231 (≈ 64.1 µg/mL) | – |
| Cc1ccc(NC(=O)c2c(O)ccc3ccccc23)cc1 [Compound 3c, 2-Hydroxy-N-(4-methylphenyl)naphthalene-1-carboxamide] | – | – | 231 (≈ 64.1 µg/mL) | – | 0.3751 | – | 874 µM | 115 (≈ 31.9 µg/mL) | 451 (≈ 125 µg/mL) | 115 (≈ 31.9 µg/mL) | – |
| O=C(Nc1ccccc1F)c1c(O)ccc2ccccc12 [Compound 4a, N-(2-fluorophenyl)-2-hydroxynaphthalene-1-carboxamide] | 455 (≈ 128 µg/mL) | 455 (≈ 128 µg/mL) | 228 (≈ 64.1 µg/mL) | 455 (≈ 128 µg/mL) | 0.5664 | 228 (≈ 64.1 µg/mL) | 243 µM | 114 (≈ 32.1 µg/mL) | 203 (≈ 57.1 µg/mL) | 228 (≈ 64.1 µg/mL) | – |
| O=C(Nc1cccc(F)c1)c1c(O)ccc2ccccc12 [Compound 4b, N-(3-fluorophenyl)-2-hydroxynaphthalene-1-carboxamide] | > 910 | 228 (≈ 64.1 µg/mL) | 228 (≈ 64.1 µg/mL) | > 910 | 0.5025 | > 910 | 213 µM | 114 (≈ 32.1 µg/mL) | > 889 | > 910 | – |
| O=C(Nc1ccc([N+](=O)[O-])cc1)c1c(O)ccc2ccccc12 [Compound 8c, 2-Hydroxy-N-(4-nitrophenyl)naphthalene-1-carboxamide] | – | 104 (≈ 32.1 µg/mL) | – | – | 0.6260 | – | 37.5 µM | 415 (≈ 128 µg/mL) | 811 (≈ 250 µg/mL) | ~52 (≈ 16 µg/mL) | about 9 fold |
| CN(C)C(=O)Nc1ccc(Cl)c(Cl)c1 [DCMU, 3-(3,4-dichlorophenyl)-1,1-dimethylurea, reference compound] | – | – | – | – | 0.8801 | – | ~1.9 µM and 1.9 µM | – | – | – | – |
| NNC(=O)c1ccncc1 [INH, isoniazid, reference compound] | – | – | – | – | 0.0141 | – | – | – | > 1820 | 467 (≈ 64 µg/mL) | – |
